Data reported in US11413337B2, “Peptide conjugated particles for the treatment of inflammation” (Northwestern University, priority 2012, dated 2022).
Where no end group is shown, it is not given here.

How the values were obtained:
[1] = tested on: Th1 and Th17 responses; assay: induction of antigen-specific Th1 and Th17 responses, draining lymph node cells; format: in vivo, mouse; settings: BALB/c mice, iv Day −7, measured Day 10
Experimental: To determine whether administration of antigen-coupled particles inhibit induction of T-helper cells, either MOG35-55-PLG or OVA323-339-PLG particles were administered intravenously to BALB/c mice at Day −7. On Day 0, OVA323-339-PLG particles and Complete Freund's Adjuvant (CFA) were administered subcutaneously to the mice. The animals were re-stimulated with either MOG35-55-PLG or OVA323-339-PLG particles on Day 10 and the draining lymph node cells were isolated. The CPM and levels of IL-17, GM-CSF, IFN-γ, IL-10, and IL-4 were measured at Day 10.

[2] = tested on: Relapsing Experimental Autoimmune Encephalitis (R-EAE); assay: prophylactic tolerance in PLP139-151/CFA-induced R-EAE, particles given day −7; format: in vivo, mouse; settings: treated day −7 relative to immunization
[3] = tested on: cervical spinal cord; assay: spinal cord histology and in vivo imaging in R-EAE; parameters: species or system mouse; settings: spinal cord, day 40
Experimental: An additional therapeutic tolerance strategy was performed by delivering PLP139-151-PLG or OVA323-339 PLG to mice. […] Mice were treated with PLP-PLG or OVA323-339-PLG and the tissue was retrieved at day 40. The cervical spinal cord was isolated and sectioned to investigate the immune response within the CNS, which underlies the pathology of R-EAE and multiple sclerosis.
The clinical scores and percent incidence of EAE were determined (FIG. 10B) and the spinal cords observed via in vivo imaging (FIGS. 10A and 11). […] The bar graphs give the numerical numbers to the signal strength shown in the brain and SC scans.

[4] = tested on: spleen, liver and lung; macrophages; assay: detection and cellular localisation of particles after iv administration; settings: 24 hours after intravenous infusion
Text: Naïve uninjected mouse (top row) as compared to i.v. fluorescent PLGA/PEMA microparticle injected mouse spleen (left column), liver (middle column) and lung (left column) sections at 3-hours post injection (middle row) and 24-hours (bottom row) post-injection, counterstained with DAPI.

Row | Substance | Th1 and Th17 responses [1] | prevention of disease induction [2] | staining for CD45, CD4, and CD11b [3] | cells taking up particles [4]
1 | OVA323-339-PLG: control peptide OVA323-339 coupled to PLG particles (KISQAVHAAHAEINEAG; also: coupled to PLG particles; UniProt P01012 323-339, looked up, fragment) | inhibited the Th1 and Th17 responses | did not prevent disease induction | positive staining | 
2 | TAMRA-labeled PLP139-151-coupled particles: particles coupled with TAMRA-labeled PLP139-151 (CHCLGKWLGHPDK; cysteine pairing not given here; also: TAMRA label, position not given here, coupled to particles; UniProt P60202 139-151, looked up, fragment) |  |  |  | marginal zone macrophages predominantly uptake
